Test results taken from US20240247080A1, “GLP1/GIP/NPY2 RECEPTOR TRIPLE AGONISTS” (Boehringer Ingelheim International GmbH, priority 2022, published 2024).
Like-named read-outs stand apart in the source and are kept apart here. Starred links: 1 amine or outer side, 2 acyl side, 3 side chain; linkers in the order of their positions; H or OH if unused. Non-standard residues stand in square brackets, D forms with d. Groups on a side chain read outwards from the residue. *: point of attachment. C20 diacid = O=C(O)CCCCCCCCCCCCCCCCCCC(=O)*; C18 diacid = O=C(O)CCCCCCCCCCCCCCCCC(=O)*; γGlu = O=C(O)[C@H](CCC(=O)[*:2])N[*:1]; εLys = N[C@@H](CCCCN[*:1])C(=O)[*:2]; Tle = CC(C)(C)[C@H](N)C(=O)O; AEEA = NCCOCCOCC(=O)O; Aib = CC(C)(N)C(=O)O

Assays:
Format in all cases: cell-based
Settings in all cases: CreLuc reporter gene assay
hGIPR = biological target: T1, hGIPR (Homo sapiens, UniProt P48546); assay: hGIPR CreLuc reporter gene assay in 0.5% and 100% plasma
T1 construct: expressed in transfected cells; host or cells: CHO cells carrying a CRE-luciferase reporter gene
T1 sequence (P48546 22-466): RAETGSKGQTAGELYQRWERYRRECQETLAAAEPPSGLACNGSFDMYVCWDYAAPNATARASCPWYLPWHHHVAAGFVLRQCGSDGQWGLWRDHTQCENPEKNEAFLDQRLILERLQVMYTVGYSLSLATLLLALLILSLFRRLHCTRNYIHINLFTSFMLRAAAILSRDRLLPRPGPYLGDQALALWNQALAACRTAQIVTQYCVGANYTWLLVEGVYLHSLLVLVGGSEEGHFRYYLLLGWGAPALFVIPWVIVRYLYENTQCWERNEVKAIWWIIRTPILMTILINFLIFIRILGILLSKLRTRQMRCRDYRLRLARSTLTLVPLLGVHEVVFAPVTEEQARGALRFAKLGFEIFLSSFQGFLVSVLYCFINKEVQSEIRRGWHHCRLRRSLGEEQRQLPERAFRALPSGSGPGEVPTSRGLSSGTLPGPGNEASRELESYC
Outline: (§1)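 HEK cells (GLP-1R, NPY2R) or CHO cells (GIPR) carrying a CRE-luciferase reporter, incubated 4 h at 37 °C with peptides in HBSS/20 mM HEPES pH 7.4 plus 0.5% human plasma, or in 100% plasma. Luminescence read; EC50 from 8-point variable-slope sigmoid fits.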

hNPY2R = biological target: T2, hNPY2R (Homo sapiens, UniProt P49146); assay: hNPY2R CreLuc reporter gene assay in 0.5% and 100% plasma
T2 construct: expressed in transfected cells; host or cells: HEK-293 cells carrying a CRE-luciferase reporter gene
T2 sequence (P49146 1-381): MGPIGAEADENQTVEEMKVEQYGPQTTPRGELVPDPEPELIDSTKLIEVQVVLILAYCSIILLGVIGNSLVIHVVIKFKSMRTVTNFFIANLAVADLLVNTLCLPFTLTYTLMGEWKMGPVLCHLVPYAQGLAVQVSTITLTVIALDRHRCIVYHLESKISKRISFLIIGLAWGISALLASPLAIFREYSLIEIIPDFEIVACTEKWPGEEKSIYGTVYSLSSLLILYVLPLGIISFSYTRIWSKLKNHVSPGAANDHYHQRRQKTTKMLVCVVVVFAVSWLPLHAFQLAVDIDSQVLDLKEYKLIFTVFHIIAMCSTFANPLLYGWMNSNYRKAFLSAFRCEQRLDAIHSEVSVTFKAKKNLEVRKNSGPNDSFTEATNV
Outline: as §1

hGLP1R = biological target: T3, hGLP1R (Homo sapiens, UniProt P43220); assay: hGLP1R CreLuc reporter gene assay in 0.5% and 100% plasma
T3 construct: expressed in transfected cells; host or cells: HEK-293 cells carrying a CRE-luciferase reporter gene
Outline: as §1

[1] = 0.5% human plasma, read-out: hGIPR 0.5% hP
[2] = 100% human plasma, read-out: hGIPR 100% hP
[3] = 0.5% human plasma, read-out: hNPY2R 0.5% hP
[4] = 0.5% human plasma, read-out: hGLP1R 0.5% hP
[5] = 100% human plasma, read-out: hNPY2R 100% hP
[6] = 100% human plasma, read-out: hGLP1R 100% hP

T3 sequence (P43220 24-463): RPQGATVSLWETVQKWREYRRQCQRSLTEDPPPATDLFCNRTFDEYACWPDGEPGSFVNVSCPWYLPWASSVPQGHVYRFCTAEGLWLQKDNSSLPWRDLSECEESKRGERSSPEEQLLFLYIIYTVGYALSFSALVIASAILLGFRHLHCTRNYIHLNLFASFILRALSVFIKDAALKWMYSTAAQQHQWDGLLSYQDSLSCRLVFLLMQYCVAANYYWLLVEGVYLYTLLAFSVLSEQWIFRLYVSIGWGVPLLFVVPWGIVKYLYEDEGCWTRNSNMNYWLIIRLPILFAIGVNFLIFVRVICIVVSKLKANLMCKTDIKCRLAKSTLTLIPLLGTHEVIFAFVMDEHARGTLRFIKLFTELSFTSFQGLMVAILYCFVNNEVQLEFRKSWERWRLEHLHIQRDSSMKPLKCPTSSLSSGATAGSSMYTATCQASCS

| EC50 (hGIPR; [1]) | EC50 (hGIPR; [2]) | EC50 (hNPY2R; [3]) | EC50 (hGLP1R; [4]) | EC50 (hNPY2R; [5]) | EC50 (hGLP1R; [6]) | Substance |
| --- | --- | --- | --- | --- | --- | --- |
| 1.01 nM |  | 14.8 nM | 0.25 nM |  |  | H-Y[Aib]EGTFTSDYSI[Aib]LEKQAQ[Aib]AFVQWLIK([εLys-γGlu-γGlu-γGlu-γGlu-γGlu-γGlu-C20 diacid])GGPEEGASLRHYYNWLTRQRY-NH2 [Compound 89, Y-Aib-E-G-T-F-T-S-D-Y-S-I-Aib-L-E-K-Q-A-Q-Aib-A-F-V-Q-W-L-I-K(1,3)-GGPEEGASLRHYYNWLTRQRY-NH2.C20DA-gGlu-gGlu-gGlu-gGlu-gGlu-gGlu-eLys(1,2)] |
| 0.31 nM | 2.03 nM | 15.1 nM | 0.32 nM | 64.7 nM |  | H-Y[Aib]EGTFTSDYSI[Aib]LEKAAQ[Aib]AFVEWLIK([εLys-γGlu-γGlu-γGlu-γGlu-γGlu-γGlu-C20 diacid])GGPSSGASLRHYYNWLTRQRY-NH2 [Compound 136, Y-Aib-E-G-T-F-T-S-D-Y-S-I-Aib-L-E-K-A-A-Q-Aib-A-F-V-E-W-L-I-K(1,3)-GGPSSGASLRHYYNWLTRQRY-NH2.C20DA-gGlu-gGlu-gGlu-gGlu-gGlu-gGlu-eLys(1,2)] |
| 0.14 nM |  | 11.9 nM | 0.11 nM | 45.8 nM | 4.76 nM | H-Y[Aib]EGTFTSDYSI[Aib]LEKQAQ[Aib]AFVQWLIK([γGlu-γGlu-γGlu-γGlu-γGlu-C18 diacid])GGPESPASLRHYYNWLTRQRY-NH2 [Compound 12, Y-Aib-E-G-T-F-T-S-D-Y-S-I-Aib-L-E-K-Q-A-Q-Aib-A-F-V-Q-W-L-I-K(1,3)-GGPESPASLRHYYNWLTRQRY-NH2.C18DA-gGlu-gGlu-gGlu-gGlu-gGlu(1,2)] |
| 0.48 nM |  | 14.1 nM | 0.16 nM |  |  | H-Y[Aib]EGTFTSDYSI[Aib]LEKQAQ[Aib]AFVEWLIK([εLys-γGlu-γGlu-γGlu-γGlu-γGlu-γGlu-C20 diacid])GGPSSGASLRHY[Tle]NWLTRQRY-NH2 [Compound 133, Y-Aib-E-G-T-F-T-S-D-Y-S-I-Aib-L-E-K-Q-A-Q-Aib-A-F-V-E-W-L-I-K(1,3)-G-G-P-S-S-G-A-S-L-R-H-Y-Tle-N-W-L-T-R-Q-R-Y-NH2.C20DA-gGlu-gGlu-gGlu-gGlu-gGlu-gGlu-eLys(1,2)] |

Further lines, the substance ahead of its results:

| Substance | EC50 (hGIPR; [1]) | EC50 (hGIPR; [2]) | EC50 (hNPY2R; [3]) | EC50 (hGLP1R; [4]) | EC50 (hNPY2R; [5]) | EC50 (hGLP1R; [6]) |
| --- | --- | --- | --- | --- | --- | --- |
| H-Y[Aib]EGTFTSDYSI[Aib]LEKQAQ[Aib]AFVEWLIK([AEEA-AEEA-Glu-Glu-Glu-C18 diacid])GGPSEGASLRHYYNWLTRQRY-NH2 [Compound 298, Y-Aib-E-G-T-F-T-S-D-Y-S-I-Aib-L-E-K-Q-A-Q-Aib-A-F-V-E-W-L-I-K(1,3)-GGPSEGASLRHYYNWLTRQRY-NH2.C18DA-E-E-E-OEG-OEG(1,2)] | 0.13 nM | 1.27 nM | 12.1 nM | 0.11 nM |  |  |
| H-Y[Aib]EGTFTSDYSI[Aib]LEKQAE[Aib]AFVEWLIK([γGlu-γGlu-γGlu-γGlu-C18 diacid])GGPSEGASLRHYYNWLTRQRY-NH2 [Compound 262, Y-Aib-E-G-T-F-T-S-D-Y-S-I-Aib-L-E-K-Q-A-E-Aib-A-F-V-E-W-L-I-K(1,3)-GGPSEGASLRHYYNWLTRQRY-NH2.C18DA-gGlu-gGlu-gGlu-gGlu(1,2)] | 0.08 nM | 0.53 nM | 13.2 nM | 0.13 nM |  |  |
| H-Y[Aib]EGTFTSDYSI[Aib]LEKQAQ[Aib]AFVEWLIK([AEEA-AEEA-γGlu-γGlu-γGlu-γGlu-C20 diacid])GGPSSPASLRHYYNWLTRQRY-NH2 [Compound 175, Y-Aib-E-G-T-F-T-S-D-Y-S-I-Aib-L-E-K-Q-A-Q-Aib-A-F-V-E-W-L-I-K(1,3)-GGPSSPASLRHYYNWLTRQRY-NH2.C20DA-gGlu-gGlu-gGlu-gGlu-OEG-OEG(1,2)] | 0.29 nM | 1.53 nM | 10.5 nM | 0.1 nM | 48.7 nM |  |
| H-Y[Aib]EGTFTSDYSI[Aib]LELQAQ[Aib]AFVEWLIK([εLys-γGlu-γGlu-γGlu-γGlu-γGlu-γGlu-C20 diacid])GGPSSGASLRHYYNWLTRQRY-NH2 [Compound 209, Y-Aib-E-G-T-F-T-S-D-Y-S-I-Aib-L-E-L-Q-A-Q-Aib-A-F-V-E-W-L-I-K(1,3)-GGPSSGASLRHYYNWLTRQRY-NH2.C20DA-gGlu-gGlu-gGlu-gGlu-gGlu-gGlu-eLys(1,2)] | 0.81 nM |  | 35.2 nM | 0.48 nM |  | 16.7 nM |
| H-Y[Aib]EGTFTSDYSI[Aib]LEKQAQ[Aib]AFVEWLIK([εLys-γGlu-γGlu-γGlu-γGlu-γGlu-γGlu-C20 diacid])GGPSSGVSLRHYYNWLTRQRY-NH2 [Compound 96, Y-Aib-E-G-T-F-T-S-D-Y-S-I-Aib-L-E-K-Q-A-Q-Aib-A-F-V-E-W-L-I-K(1,3)-GGPSSGVSLRHYYNWLTRQRY-NH2.C20DA-gGlu-gGlu-gGlu-gGlu-gGlu-gGlu-eLys(1,2)] | 0.19 nM | 1.07 nM |  | 0.14 nM | 44.8 nM | 2.12 nM |
| H-Y[Aib]EGTFTSDYSI[Aib]LEAQAQ[Aib]AFVEWLIK([εLys-γGlu-γGlu-γGlu-γGlu-γGlu-γGlu-C20 diacid])GGPSSGASLRHYYNWLTRQRY-NH2 [Compound 102, Y-Aib-E-G-T-F-T-S-D-Y-S-I-Aib-L-E-A-Q-A-Q-Aib-A-F-V-E-W-L-I-K(1,3)-GGPSSGASLRHYYNWLTRQRY-NH2.C20DA-gGlu-gGlu-gGlu-gGlu-gGlu-gGlu-eLys(1,2)] | 0.98 nM |  | 24.8 nM | 0.33 nM |  |  |
| H-Y[Aib]EGTFTSDYSI[Aib]LEEQAQ[Aib]AFVEWLIK([εLys-AEEA-AEEA-γGlu-γGlu-γGlu-γGlu-C20 diacid])GGPSSGASLRHYYNWLTRQRY-NH2 [Compound 100, Y-Aib-E-G-T-F-T-S-D-Y-S-I-Aib-L-E-E-Q-A-Q-Aib-A-F-V-E-W-L-I-K(1,3)-GGPSSGASLRHYYNWLTRQRY-NH2.C20DA-gGlu-gGlu-glu-gGlu-OEG-OEG-eLys(1,2)] | 0.1 nM | 0.87 nM | 11.2 nM | 0.12 nM |  | 2.21 nM |
